Assay results reported in ChEMBL document CHEMBL1151349, “The antineoplastic quassinoids of Simaba cuspidata spruce and Ailanthus grandis Prain” (1980).
Activity calls are given as the source filed them. No cut-off for these calls is given here.

Key:
[1] = test system: P388; assay: Antineoplastic activity against mouse P388 cells; format: functional
[2] = test system: P388; assay: In vivo antineoplastic activity against mouse P388 cells assessed as increase in survival time at 0.08 to 0.60 mg/kg; format: functional; conditions: dose mg/kg 0.08-0.60
[3] = test system: P388; assay: In vivo antineoplastic activity against mouse P388 cells upto 2.0 mg/kg; format: functional, organism-based; design: dose 2 mg/kg

**Q.** How did the GI [1] turn out when `C/C=C(/C)C(=O)O[C@@H]1[C@H]2C(C)=CC(=O)[C@@H](O)[C@]2(C)[C@H]2[C@@]3(O)OC[C@@]24[C@@H]1OC(=O)C[C@H]4[C@@H](C)[C@H]3O` was run?
**A.** <0.01 µg/mL

**Q.** And the Activity [2]?
**A.** 34%

**Q.** For `CC[C@@](C)(OC(C)=O)C(=O)O[C@H]1C(=O)O[C@@H]2C[C@H]3C(C)=C[C@H](O)[C@@H](O)[C@]3(C)[C@H]3[C@@]4(O)OC[C@]32[C@@H]1[C@@H](C)[C@H]4O`, which Activity [1] is on record?
**A.** inactive

**Q.** For `C/C=C(/C)C(=O)O[C@@H]1[C@H]2C(C)=C[C@H](O)[C@@H](O)[C@]2(C)[C@H]2[C@@]3(O)OC[C@@]24[C@@H]1OC(=O)C[C@H]4[C@@H](C)[C@H]3O`, which Activity [3] is on record?
**A.** inactive

**Q.** And the GI [1]?
**A.** 0.24 µg/mL
